{"source": "patent US12194050B2", "about": "“Thiadiazine derivatives” (RICHTER GEDEON NYRT., priority 2018, dated 2025)", "key": {"human α7 nAchR": {"target": "human α7 nAchR (Homo sapiens (Human), UniProt P36544)", "sequence (P36544 23-502)": "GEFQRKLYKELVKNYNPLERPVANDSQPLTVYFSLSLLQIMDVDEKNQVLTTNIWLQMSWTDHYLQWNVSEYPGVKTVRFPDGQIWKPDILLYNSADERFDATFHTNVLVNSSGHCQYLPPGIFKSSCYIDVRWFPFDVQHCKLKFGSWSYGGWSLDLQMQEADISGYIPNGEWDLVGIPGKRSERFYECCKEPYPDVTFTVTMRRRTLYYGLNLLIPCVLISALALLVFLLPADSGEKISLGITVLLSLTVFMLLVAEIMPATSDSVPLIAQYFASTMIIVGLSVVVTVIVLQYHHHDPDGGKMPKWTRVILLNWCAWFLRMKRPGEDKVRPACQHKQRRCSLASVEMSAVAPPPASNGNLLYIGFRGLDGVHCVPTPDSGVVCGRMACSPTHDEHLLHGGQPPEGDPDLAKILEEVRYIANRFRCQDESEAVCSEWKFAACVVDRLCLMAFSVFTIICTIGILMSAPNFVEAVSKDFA", "experiment": "Human α7 nicotinic acetylcholine receptor [Ca2+]i assay (PAM, Ca2+ fluorometry)", "type": "cell-based", "details": "Flp-In 293 cells expressing human α7 nAchR and human RIC-3; in presence of saturating agonist (mostly PNU-282987, 1 μM)"}, "Male NMRI mice": {"test_system": "Male NMRI mice", "experiment": "Place recognition test (Y-maze), reversal of scopolamine-induced amnesia", "type": "in vivo", "details": "scopolamine 1 mg/kg i.p.", "experimental": "In Vivo Pharmacology (Place Recognition Test)\nAnimals: Male NMRI mice (Toxicoop, Hungary)\nSubstances: Scopolamine was dissolved in saline and administered at 1 mg/kg dose i.p. Test compounds were administered 30 minutes before the acquisition trial (T1) and scopolamine after the acquisition trial at a volume of 0.1 ml/10 g.\nProcedure: The task was carried out in a transparent plexiglass Y-maze (each arm has a length of 40 cm, an inner width of 11 cm and a height of 30 cm). Numerous visual cues were placed around the arms and were kept constant during the experiment. The test consisted of two trials (T1 and T2) separated by an intertrial interval of 30 minutes. Mice were placed in the starting arm of the maze at the beginning of each trial. In T1, one of the symmetric arms of the maze was closed (it will be novel in T2) and the animals were allowed to explore the maze for 5 minutes (acquisition phase). In T2, mice had free access to all three arms for 2 minutes (retrieval phase). The time spent with exploration in the novel and familiar arms during T2 was measured. Differences between the exploration times spent in the familiar vs. novel arms of the maze for each group were evaluated by MANOVA, followed by Duncan post hoc test.\nSignificant differences (^+p<0.05; ^++p<0.01; ^+++p<0.001) were observed between the exploration times spent in the novel vs. familiar arms of the maze."}}}
{"compound": "COc1ccc(C2=NS(=O)(=O)N(C)C(C(=O)Nc3cccc(C)c3)=C2)cc1OC", "note": "[Example 1, 5-(3,4-dimethoxyphenyl)-2-methyl-N-(3-methylphenyl)-1,1-dioxo-2H-1λ^6,2,6-thiadiazine-3-carboxamide]", "values": [{"measurement": "EC50", "setting": "human α7 nAchR", "result": 430, "unit": "nM"}, {"measurement": "reversal of the scopolamine-induced amnesia; significance of exploration time novel vs. familiar arm", "setting": "Male NMRI mice; 1 mg/kg i.p.", "result": "++ (++p < 0.01)"}, {"measurement": "reversal of the scopolamine-induced amnesia; significance of exploration time novel vs. familiar arm", "setting": "Male NMRI mice; 3 mg/kg i.p.", "result": "+++ (+++p < 0.001)"}, {"measurement": "reversal of the scopolamine-induced amnesia; significance of exploration time novel vs. familiar arm", "setting": "Male NMRI mice; 10 mg/kg i.p.", "result": "+++ (+++p < 0.001)"}]}
{"compound": "Cc1cccc(NC(=O)C2=CC(c3ccc4c(c3)c(C)nn4C)=NS(=O)(=O)N2C)c1", "note": "[Example 21]", "values": [{"measurement": "EC50", "setting": "human α7 nAchR", "result": 230, "unit": "nM"}, {"measurement": "reversal of the scopolamine-induced amnesia; significance of exploration time novel vs. familiar arm", "setting": "Male NMRI mice; 1 mg/kg i.p.", "result": "++ (++p < 0.01)"}, {"measurement": "reversal of the scopolamine-induced amnesia; significance of exploration time novel vs. familiar arm", "setting": "Male NMRI mice; 3 mg/kg i.p.", "result": "+++ (+++p < 0.001)"}, {"measurement": "reversal of the scopolamine-induced amnesia; significance of exploration time novel vs. familiar arm", "setting": "Male NMRI mice; 10 mg/kg i.p.", "result": "++ (++p < 0.01)"}]}
{"compound": "CCN1C(C(=O)Nc2cccc(C)c2)=CC(c2ccc(OC)c(OC)c2)=NS1(=O)=O", "note": "[Example 29]", "values": [{"measurement": "EC50", "setting": "human α7 nAchR", "result": 340, "unit": "nM"}, {"measurement": "reversal of the scopolamine-induced amnesia; significance of exploration time novel vs. familiar arm", "setting": "Male NMRI mice; 1 mg/kg i.p.", "result": "+++ (+++p < 0.001)"}, {"measurement": "reversal of the scopolamine-induced amnesia; significance of exploration time novel vs. familiar arm", "setting": "Male NMRI mice; 3 mg/kg i.p.", "result": "++ (++p < 0.01)"}, {"measurement": "reversal of the scopolamine-induced amnesia; significance of exploration time novel vs. familiar arm", "setting": "Male NMRI mice; 10 mg/kg i.p.", "result": "+++ (+++p < 0.001)"}]}
{"compound": "CCN1C(C(=O)Nc2cccc(C(F)(F)F)n2)=CC(c2ccc(OC)c(OC)c2)=NS1(=O)=O", "note": "[Example 33]", "values": [{"measurement": "EC50", "setting": "human α7 nAchR", "result": 50, "unit": "nM"}, {"measurement": "reversal of the scopolamine-induced amnesia; significance of exploration time novel vs. familiar arm", "setting": "Male NMRI mice; 1 mg/kg i.p.", "result": "+++ (+++p < 0.001)"}, {"measurement": "reversal of the scopolamine-induced amnesia; significance of exploration time novel vs. familiar arm", "setting": "Male NMRI mice; 3 mg/kg i.p.", "result": "++ (++p < 0.01)"}, {"measurement": "reversal of the scopolamine-induced amnesia; significance of exploration time novel vs. familiar arm", "setting": "Male NMRI mice; 10 mg/kg i.p.", "result": "++ (++p < 0.01)"}]}
{"compound": "CCN1C(C(=O)Nc2cccc(OC)c2)=CC(c2ccc(OC)c(C(F)(F)F)c2)=NS1(=O)=O", "note": "[Example 37]", "values": [{"measurement": "EC50", "setting": "human α7 nAchR", "result": 45, "unit": "nM"}, {"measurement": "reversal of the scopolamine-induced amnesia; significance of exploration time novel vs. familiar arm", "setting": "Male NMRI mice; 1 mg/kg i.p.", "result": "+++ (+++p < 0.001)"}, {"measurement": "reversal of the scopolamine-induced amnesia; significance of exploration time novel vs. familiar arm", "setting": "Male NMRI mice; 3 mg/kg i.p.", "result": "++ (++p < 0.01)"}, {"measurement": "reversal of the scopolamine-induced amnesia; significance of exploration time novel vs. familiar arm", "setting": "Male NMRI mice; 10 mg/kg i.p.", "result": "+++ (+++p < 0.001)"}]}
{"compound": "COc1ccc(C2=NS(=O)(=O)N(C(C)C)C(C(=O)Nc3cccc(C(F)(F)F)n3)=C2)cc1OC", "note": "[Example 91]", "values": [{"measurement": "EC50", "setting": "human α7 nAchR", "result": 35, "unit": "nM"}, {"measurement": "reversal of the scopolamine-induced amnesia; significance of exploration time novel vs. familiar arm", "setting": "Male NMRI mice; 1 mg/kg i.p.", "result": "+++ (+++p < 0.001)"}, {"measurement": "reversal of the scopolamine-induced amnesia; significance of exploration time novel vs. familiar arm", "setting": "Male NMRI mice; 3 mg/kg i.p.", "result": "+ (+p < 0.05)"}, {"measurement": "reversal of the scopolamine-induced amnesia; significance of exploration time novel vs. familiar arm", "setting": "Male NMRI mice; 10 mg/kg i.p.", "result": "+++ (+++p < 0.001)"}]}
{"compound": "CCCN1C(C(=O)Nc2cccc(C(F)(F)F)c2)=CC(c2ccc(OC)c(OC)c2)=NS1(=O)=O", "note": "[Example 94]", "values": [{"measurement": "EC50", "setting": "human α7 nAchR", "result": 340, "unit": "nM"}, {"measurement": "reversal of the scopolamine-induced amnesia; significance of exploration time novel vs. familiar arm", "setting": "Male NMRI mice; 1 mg/kg i.p.", "result": "+++ (+++p < 0.001)"}, {"measurement": "reversal of the scopolamine-induced amnesia; significance of exploration time novel vs. familiar arm", "setting": "Male NMRI mice; 3 mg/kg i.p.", "result": "+++ (+++p < 0.001)"}, {"measurement": "reversal of the scopolamine-induced amnesia; significance of exploration time novel vs. familiar arm", "setting": "Male NMRI mice; 10 mg/kg i.p.", "result": "+++ (+++p < 0.001)"}]}
{"compound": "O=C(Nc1ccc(F)cn1)C1=CC([C@H]2CC[C@H](C(F)(F)F)CC2)=NS(=O)(=O)N1CC1CC1", "note": "[Example 133]", "values": [{"measurement": "EC50", "setting": "human α7 nAchR", "result": 230, "unit": "nM"}]}
{"compound": "O=C(Nc1cccc(C(F)(F)F)n1)C1=CC(C2CCC(F)(F)CC2)=NS(=O)(=O)N1CC1CC1", "note": "[Example 134]", "values": [{"measurement": "EC50", "setting": "human α7 nAchR", "result": 80, "unit": "nM"}]}
{"compound": "O=C(Nc1cccc(F)n1)C1=CC(C2CCC(F)(F)CC2)=NS(=O)(=O)N1CC1CC1", "note": "[Example 135]", "values": [{"measurement": "EC50", "setting": "human α7 nAchR", "result": 120, "unit": "nM"}]}
{"compound": "CC(C)N1C(C(=O)Nc2ccnc(C(F)(F)F)n2)=CC([C@H]2CC[C@H](C(F)(F)F)CC2)=NS1(=O)=O", "note": "[Example 136]", "values": [{"measurement": "EC50", "setting": "human α7 nAchR", "result": 150, "unit": "nM"}]}
{"compound": "O=C(Nc1ccnc(C(F)(F)F)n1)C1=CC([C@H]2CC[C@H](C(F)(F)F)CC2)=NS(=O)(=O)N1CC1CC1", "note": "[Example 137]", "values": [{"measurement": "EC50", "setting": "human α7 nAchR", "result": 130, "unit": "nM"}]}
{"compound": "CC(C)N1C(C(=O)Nc2cncc(F)n2)=CC([C@H]2CC[C@H](C(F)(F)F)CC2)=NS1(=O)=O", "note": "[Example 138]", "values": [{"measurement": "EC50", "setting": "human α7 nAchR", "result": 140, "unit": "nM"}]}
{"compound": "O=C(Nc1cncc(F)n1)C1=CC([C@H]2CC[C@H](C(F)(F)F)CC2)=NS(=O)(=O)N1CC1CC1", "note": "[Example 139]", "values": [{"measurement": "EC50", "setting": "human α7 nAchR", "result": 150, "unit": "nM"}]}
